Results as given in patent US10508120B2, “TYK2 inhibitors and uses thereof” (Nimbus Lakshmi, Inc., priority 2017, dated 2019).

What was measured:
Tyk2 kinase domain (DH1) = Tyk2 kinase domain (DH1) (Homo sapiens (Human), UniProt P29597); assay: Tyk2 Radioactive Kinase Assay; format: biochemical; settings: compound at 10 μM, ATP 10 μM; for inhibition at 10 µM: read-out: Tyk2 JH1% Inhibition @ 10 μM
Summary of the method: (§1)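 Single-point screen: 10 μM test compound, radioactive kinase read-out, percent inhibition reported for each kinase domain.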

JAK2 kinase domain (JH1) = JAK2 kinase domain (JH1) (Homo sapiens (Human), UniProt O60674); assay: JAK2 Radioactive Kinase Assay; format: biochemical; settings: compound at 10 μM, ATP 10 μM; for inhibition at 10 µM: read-out: JAK2 JH1% Inhibition @ 10 μM
Summary of the method: as §1

[1] = target: Tyk2/JAK2 (heterodimeric complex) (Homo sapiens (Human), UniProt P29597); assay: IL-12 Induced pSTAT4 in Human PBMC; format: cell-based; settings: 1.7 ng/mL IL-12
From the text: The IL-12 Induced pSTAT4 assay evaluates the inhibition of IL-12 induced STAT4 phophorylation mediated by Tyk2/JAK2 (heterodimeric complex).

[2] = target: human TYK2 (JH2domain-pseudokinase) (Homo sapiens (Human), UniProt P29597); assay: TYK2 JH2 Domain Binding Assay (KINOMEscan)
Summary of the method: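 Pseudokinase domain binding was measured by qPCR of tagged, bead-retained kinase after 1 h room-temperature competition, with 0.9% DMSO and compound up to 30,000 nM in 3-fold steps. Hill-equation Kd, duplicate.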

[3] = target: JAK2/JAK2 homdimeric complex (Homo sapiens (Human), UniProt O60674); assay: GM-CSF Induced pSTAT5 in Human PBMC; format: cell-based; settings: GM-CSF 5 ng/mL for 20 minutes, pSTAT5 by MSD, read-out: PBMC_GMCSF_pSTAT5 IC50
Chain of JAK2/JAK2 homdimeric complex (O60674 whole entry): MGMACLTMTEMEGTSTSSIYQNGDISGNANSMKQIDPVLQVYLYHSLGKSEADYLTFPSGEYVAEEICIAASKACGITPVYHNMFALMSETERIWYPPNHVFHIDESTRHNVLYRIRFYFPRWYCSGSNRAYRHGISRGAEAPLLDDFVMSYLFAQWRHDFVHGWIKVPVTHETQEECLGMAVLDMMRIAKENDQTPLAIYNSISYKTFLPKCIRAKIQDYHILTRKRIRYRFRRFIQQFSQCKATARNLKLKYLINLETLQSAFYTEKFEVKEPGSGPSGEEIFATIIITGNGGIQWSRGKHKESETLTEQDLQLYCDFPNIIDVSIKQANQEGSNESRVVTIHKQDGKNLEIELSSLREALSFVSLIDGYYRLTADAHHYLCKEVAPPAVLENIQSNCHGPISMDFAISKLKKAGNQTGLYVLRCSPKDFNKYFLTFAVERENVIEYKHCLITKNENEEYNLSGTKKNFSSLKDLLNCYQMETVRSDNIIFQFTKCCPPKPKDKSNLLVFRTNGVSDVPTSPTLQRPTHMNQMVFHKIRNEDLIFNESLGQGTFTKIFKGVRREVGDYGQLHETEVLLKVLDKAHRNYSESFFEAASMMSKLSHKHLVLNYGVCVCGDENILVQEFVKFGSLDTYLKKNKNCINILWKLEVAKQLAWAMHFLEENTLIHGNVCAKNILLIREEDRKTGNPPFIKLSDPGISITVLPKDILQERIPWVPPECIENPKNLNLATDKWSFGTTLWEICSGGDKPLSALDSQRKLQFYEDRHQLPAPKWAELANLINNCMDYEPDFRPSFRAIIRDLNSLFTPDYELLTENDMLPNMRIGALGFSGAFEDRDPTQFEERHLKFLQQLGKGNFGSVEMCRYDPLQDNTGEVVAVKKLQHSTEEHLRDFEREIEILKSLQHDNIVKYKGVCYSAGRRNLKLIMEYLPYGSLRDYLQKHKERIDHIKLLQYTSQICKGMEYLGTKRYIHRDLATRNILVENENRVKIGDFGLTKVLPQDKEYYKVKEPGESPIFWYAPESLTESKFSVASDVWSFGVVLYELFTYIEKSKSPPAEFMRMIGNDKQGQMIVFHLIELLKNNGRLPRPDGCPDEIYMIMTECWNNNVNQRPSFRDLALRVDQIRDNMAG
Chain of JAK2/JAK2 homdimeric complex (P32927 17-897 partner): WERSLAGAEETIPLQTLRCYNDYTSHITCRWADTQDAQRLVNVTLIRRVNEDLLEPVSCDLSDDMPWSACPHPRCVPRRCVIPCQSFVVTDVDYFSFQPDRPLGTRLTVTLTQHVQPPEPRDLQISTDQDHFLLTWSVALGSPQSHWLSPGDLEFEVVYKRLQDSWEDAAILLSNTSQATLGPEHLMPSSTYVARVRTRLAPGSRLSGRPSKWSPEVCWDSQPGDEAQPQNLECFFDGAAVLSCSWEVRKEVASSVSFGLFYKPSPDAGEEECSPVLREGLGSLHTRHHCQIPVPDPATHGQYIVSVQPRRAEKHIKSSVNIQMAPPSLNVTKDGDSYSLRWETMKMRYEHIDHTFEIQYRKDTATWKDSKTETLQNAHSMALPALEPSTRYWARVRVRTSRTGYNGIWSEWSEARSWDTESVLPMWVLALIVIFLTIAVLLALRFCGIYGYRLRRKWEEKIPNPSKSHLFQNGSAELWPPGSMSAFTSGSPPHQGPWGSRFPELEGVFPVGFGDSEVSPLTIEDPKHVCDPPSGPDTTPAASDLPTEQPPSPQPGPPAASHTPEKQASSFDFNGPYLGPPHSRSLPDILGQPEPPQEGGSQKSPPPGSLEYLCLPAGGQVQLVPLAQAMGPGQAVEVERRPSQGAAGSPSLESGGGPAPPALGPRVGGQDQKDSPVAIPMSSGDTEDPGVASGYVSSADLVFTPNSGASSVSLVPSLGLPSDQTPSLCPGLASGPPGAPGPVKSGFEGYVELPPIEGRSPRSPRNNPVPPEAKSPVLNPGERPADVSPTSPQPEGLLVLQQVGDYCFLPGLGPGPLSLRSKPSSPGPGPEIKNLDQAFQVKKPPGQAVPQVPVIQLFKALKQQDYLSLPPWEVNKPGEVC

Chain of Tyk2/JAK2 (heterodimeric complex) (P29597 whole entry, other chains not shown): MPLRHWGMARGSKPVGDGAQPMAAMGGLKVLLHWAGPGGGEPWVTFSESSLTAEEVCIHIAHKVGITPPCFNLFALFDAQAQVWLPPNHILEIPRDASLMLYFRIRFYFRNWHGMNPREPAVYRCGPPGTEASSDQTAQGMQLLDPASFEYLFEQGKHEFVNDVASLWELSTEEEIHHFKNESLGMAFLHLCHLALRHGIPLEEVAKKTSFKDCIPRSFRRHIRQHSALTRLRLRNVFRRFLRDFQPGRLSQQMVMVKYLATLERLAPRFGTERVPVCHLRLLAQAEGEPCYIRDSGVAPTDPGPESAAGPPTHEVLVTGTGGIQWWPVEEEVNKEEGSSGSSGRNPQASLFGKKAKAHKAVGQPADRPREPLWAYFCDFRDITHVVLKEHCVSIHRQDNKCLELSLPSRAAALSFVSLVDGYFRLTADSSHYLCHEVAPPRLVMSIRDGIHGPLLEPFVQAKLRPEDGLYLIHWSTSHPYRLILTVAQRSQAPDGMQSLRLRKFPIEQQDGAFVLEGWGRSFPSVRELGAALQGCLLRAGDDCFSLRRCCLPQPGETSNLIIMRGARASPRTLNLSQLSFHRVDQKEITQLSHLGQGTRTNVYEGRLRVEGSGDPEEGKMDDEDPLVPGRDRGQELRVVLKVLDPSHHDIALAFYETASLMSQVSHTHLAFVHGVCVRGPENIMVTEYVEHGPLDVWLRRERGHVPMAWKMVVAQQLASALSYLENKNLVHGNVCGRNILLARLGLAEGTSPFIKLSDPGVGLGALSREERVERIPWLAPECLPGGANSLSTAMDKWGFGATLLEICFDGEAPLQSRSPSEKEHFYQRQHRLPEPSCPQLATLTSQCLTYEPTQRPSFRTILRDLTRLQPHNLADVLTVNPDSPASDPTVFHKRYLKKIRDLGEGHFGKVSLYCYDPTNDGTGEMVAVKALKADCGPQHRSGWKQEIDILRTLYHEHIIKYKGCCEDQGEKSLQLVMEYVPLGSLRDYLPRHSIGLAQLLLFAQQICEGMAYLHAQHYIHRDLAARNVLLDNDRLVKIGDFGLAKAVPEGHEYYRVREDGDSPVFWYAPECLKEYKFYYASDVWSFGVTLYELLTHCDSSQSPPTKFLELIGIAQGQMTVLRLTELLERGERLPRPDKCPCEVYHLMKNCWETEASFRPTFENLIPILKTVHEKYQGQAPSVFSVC
Chain of JAK2 kinase domain (JH1) (O60674 849-1124): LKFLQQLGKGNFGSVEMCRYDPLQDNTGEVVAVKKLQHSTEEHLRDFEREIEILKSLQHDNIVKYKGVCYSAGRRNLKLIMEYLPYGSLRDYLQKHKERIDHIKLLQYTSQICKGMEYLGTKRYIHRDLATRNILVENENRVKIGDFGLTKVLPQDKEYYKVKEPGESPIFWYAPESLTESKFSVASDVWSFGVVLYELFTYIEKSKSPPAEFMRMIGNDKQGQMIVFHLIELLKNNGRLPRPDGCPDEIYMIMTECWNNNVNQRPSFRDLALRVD
Chain of human TYK2 (JH2domain-pseudokinase) (P29597 556-888): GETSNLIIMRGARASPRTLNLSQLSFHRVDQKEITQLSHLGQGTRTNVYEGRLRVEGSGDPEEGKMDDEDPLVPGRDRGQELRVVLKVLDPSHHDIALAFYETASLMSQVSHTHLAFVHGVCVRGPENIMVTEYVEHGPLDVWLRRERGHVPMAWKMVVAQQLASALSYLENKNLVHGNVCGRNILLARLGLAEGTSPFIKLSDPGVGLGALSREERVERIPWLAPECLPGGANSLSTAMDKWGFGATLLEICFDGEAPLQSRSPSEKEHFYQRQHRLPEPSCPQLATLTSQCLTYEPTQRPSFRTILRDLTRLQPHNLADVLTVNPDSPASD
Chain of Tyk2 kinase domain (DH1) (P29597 897-1176): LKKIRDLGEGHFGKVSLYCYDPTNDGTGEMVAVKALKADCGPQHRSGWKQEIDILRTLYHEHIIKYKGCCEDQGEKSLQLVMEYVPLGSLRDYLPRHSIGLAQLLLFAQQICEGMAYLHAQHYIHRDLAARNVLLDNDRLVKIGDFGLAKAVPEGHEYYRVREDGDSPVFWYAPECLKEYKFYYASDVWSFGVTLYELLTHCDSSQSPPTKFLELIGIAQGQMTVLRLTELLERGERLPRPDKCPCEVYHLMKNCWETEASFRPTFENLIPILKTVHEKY

Compound	inhibition at 10 µM (Tyk2 kinase domain (DH1)) [%]	inhibition at 10 µM (JAK2 kinase domain (JH1)) [%]	IC50 [1] [nM]	Kd [2] [nM]	IC50 [3] [nM]	Tyk2 JH1% Inhibition @ 10 μM (Tyk2 kinase domain (DH1))	JAK2 JH1% Inhibition @ 10 μM (JAK2 kinase domain (JH1))
CNc1cc(Nc2cccn(-c3ccccn3)c2=O)nc2c(C(=O)NC3CC3)cnn12 [I-680]	< 50	< 50	< 100	< 0.2	> 12500		
CNc1cc(Nc2cccn(-c3ccccn3)c2=O)nc2c(C(=O)N[C@H]3C[C@H]3F)cnn12 [I-681]	< 50	< 50	< 100	< 0.2	> 12500		
CNc1cc(Nc2cc(Cl)cn(C3CCCOC3)c2=O)nc2c(C(=O)N[C@H]3C[C@H]3F)cnn12 (some centres unmarked) [I-693]	< 50	< 50	< 100	< 0.2	> 50000		
CNc1cc(Nc2cc(Cl)cn(C3CCCOC3)c2=O)nc2c(C(=O)NCC(C)(C)CO)cnn12 (centres unmarked) [I-694]	< 50	< 50	< 100	< 0.2	> 50000		
CNc1cc(Nc2cccc(N3CCC34COC4)n2)nc2c(C(=O)N[C@H]3C[C@H]3F)cnn12 [I-709]	< 50	< 50	< 100	< 0.2	> 50000		
CNc1cc(Nc2cccnc2OC)nc2c(C(=O)NO)cnn12 [I-710, N-hydroxy-5-((2-methoxypyridin-3-yl)amino)-7-(methylamino)pyrazolo[1,5-a]pyrimidine-3-carboxamide]	< 50	< 50	100 to 500	< 0.2	> 50000		
CNc1cc(Nc2cc(Cl)cn(C3CCCOC3)c2=O)nc2c(C(=O)NC3CC3)cnn12 (centres unmarked) [I-711]	< 50	< 50	< 100	< 0.2	> 50000		
CNc1cc(Nc2cc(Cl)cn(C3CCOCC3)c2=O)nc2c(C(=O)N[C@H]3CC[C@@H]3O)cnn12 [I-712]	< 50	< 50	< 100	< 0.2	> 12500		
CNc1cc(Nc2cccn(-c3ncco3)c2=O)nc2c(C(=O)NC3CC3)cnn12 [I-715]	< 50	< 50	< 100	< 0.2	> 2500		
CNc1cc(Nc2cccn(-c3ncco3)c2=O)nc2c(C(=O)N[C@H]3C[C@H]3F)cnn12 [I-716]	< 50	< 50	< 100	< 0.2	> 2500		
CNc1cc(Nc2cccn(-c3cnc(C)o3)c2=O)nc2c(C(=O)N[C@H]3C[C@H]3F)cnn12 [I-718]	< 50	< 50	< 100	< 0.2	> 12500		
CNc1cc(Nc2cccn([C@H]3CC[C@](C)(OC)CC3)c2=O)nc2c(C(=O)N[C@@H]3CC[C@@H]3O)cnn12 [I-722, N-((1S,2R)-2-hydroxycyclobutyl)-5-((1-((1R,4S)-4-methoxy-4-methylcyclohexyl)-2-oxo-1,2-dihydropyridin-3-yl)amino)-7-(methylamino)pyrazolo[1,5-a]pyrimidine-3-carboxamide]			< 100	< 0.2	> 12500	A (percent inhibition at 10 μM lower than 50)	A (percent inhibition at 10 μM lower than 50)
CNc1cc(Nc2cccn([C@H]3CCCOC3)c2=O)nc2c(C(=O)N[C@@H]3CC[C@H]3O)cnn12 [I-725]	< 50	< 50	< 100	< 0.2	> 2500		
CNc1cc(Nc2cc(Cl)cn(C3CCCN(C)C3)c2=O)nc2c(C(=O)NC3CC3)cnn12 (centres unmarked) [I-740]	< 50	< 50	< 100	< 0.2	> 2500		
CNc1cc(Nc2cccn(-c3cccnc3)c2=O)nc2c(C(=O)NC3CC3)cnn12 [I-747]	< 50	< 50	100 to 500	< 0.2	> 12500		
CNc1cc(Nc2cccn(-c3cccnc3)c2=O)nc2c(C(=O)N[C@@H]3C[C@@H]3F)cnn12 [I-748]	< 50	< 50	< 100	< 0.2	> 2500		
CNc1cc(Nc2cccc3ocnc23)nc2c(C(=O)NCC(C)(C)CO)cnn12 [I-750]	< 50	< 50	< 100	< 0.2	> 2500		
CNc1cc(Nc2cccn([C@@H]3CCCOC3)c2=O)nc2c(C(=O)N[C@H]3CC[C@H]3O)cnn12 [I-751]	< 50	< 50	< 100	< 0.2	> 12500		
CNc1cc(Nc2cc(Cl)cn(C3CCCN(C)C3)c2=O)nc2c(C(=O)N[C@@H]3C[C@@H]3F)cnn12 (some centres unmarked) [I-759]	< 50	< 50	< 100	< 0.2	> 50000		
CNc1cc(Nc2cccn(-c3cnco3)c2=O)nc2c(C(=O)N[C@@H]3C[C@@H]3F)cnn12 [I-762]	< 50	< 50	< 100	< 0.2	> 2500		
CNc1cc(Nc2cccc3ocnc23)nc2c(C(=O)N[C@@H]3CC[C@@H]3O)cnn12 [I-770]			< 100	< 0.2	> 2500	A (percent inhibition at 10 μM lower than 50)	A (percent inhibition at 10 μM lower than 50)
CNc1cc(Nc2cc(Cl)cn([C@H]3CCCOC3)c2=O)nc2c(C(=O)N[C@@H]3C[C@@H]3F)cnn12 [I-772]	< 50	< 50	< 100	< 0.2	> 300		
CNc1cc(Nc2cc(Cl)cn([C@@H]3CCCOC3)c2=O)nc2c(C(=O)N[C@@H]3C[C@@H]3F)cnn12 [I-773]	< 50	< 50	< 100	< 0.2	> 12500		
CNc1cc(Nc2cc(Cl)cn([C@H]3CCCOC3)c2=O)nc2c(C(=O)NC3CC3)cnn12 [I-782]	< 50	< 50	< 100	< 0.2	> 50000		
CNc1cc(Nc2cc(Cl)cn([C@@H]3CCCOC3)c2=O)nc2c(C(=O)NC3CC3)cnn12 [I-783]	< 50	< 50	< 100	< 0.2	> 50000		
CNc1cc(Nc2cc(Cl)cn(C3CCN(C)CC3)c2=O)nc2c(C(=O)N[C@@H]3C[C@@H]3F)cnn12 [I-789]	< 50	< 50	< 100	< 0.2	> 12500		
CNc1cc(Nc2cccn(-c3ocnc3C)c2=O)nc2c(C(=O)N[C@@H]3C[C@@H]3F)cnn12 [I-790]	< 50	< 50	< 100	< 0.2	> 12500		
CNc1cc(Nc2cccn(-c3ccccn3)c2=O)nc2c(C(=O)N[C@H]3CC[C@H]3O)cnn12 [I-805]	< 50	< 50	< 100	< 0.2	> 12500		
